Key:
Assay in all cases: stopped-flow CO2 hydration
Format in all cases: biochemical
[1] = target: T1, hCA XII (Homo sapiens, UniProt O43570)
T1 construct: gene CA12; not described; transmembrane tumour-associated isoform
Source text: stopped-flow CO2 hydration on hCA XII

[2] = target: T2, hCA II (Homo sapiens, UniProt P00918)
T2 construct: gene CA2; not described; cytosolic isoform
Source text: stopped-flow CO2 hydration on hCA II

[3] = target: T3, hCA IX (Homo sapiens, UniProt Q16790)
T3 construct: gene CA9; not described; transmembrane tumour-associated isoform
Source text: stopped-flow CO2 hydration on hCA IX

[4] = target: T4, hCA I (Homo sapiens, UniProt P00915)
T4 construct: gene CA1; not described; cytosolic isoform
Source text: stopped-flow CO2 hydration on hCA I

T4 sequence (P00915 2-261): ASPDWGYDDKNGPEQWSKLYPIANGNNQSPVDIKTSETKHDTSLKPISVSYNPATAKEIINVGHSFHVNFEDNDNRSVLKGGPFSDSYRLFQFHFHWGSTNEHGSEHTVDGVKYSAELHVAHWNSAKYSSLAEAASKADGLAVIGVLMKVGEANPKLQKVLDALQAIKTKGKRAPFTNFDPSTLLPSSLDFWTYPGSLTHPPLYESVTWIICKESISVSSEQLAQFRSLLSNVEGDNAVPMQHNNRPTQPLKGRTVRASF
T1 sequence (O43570 25-354): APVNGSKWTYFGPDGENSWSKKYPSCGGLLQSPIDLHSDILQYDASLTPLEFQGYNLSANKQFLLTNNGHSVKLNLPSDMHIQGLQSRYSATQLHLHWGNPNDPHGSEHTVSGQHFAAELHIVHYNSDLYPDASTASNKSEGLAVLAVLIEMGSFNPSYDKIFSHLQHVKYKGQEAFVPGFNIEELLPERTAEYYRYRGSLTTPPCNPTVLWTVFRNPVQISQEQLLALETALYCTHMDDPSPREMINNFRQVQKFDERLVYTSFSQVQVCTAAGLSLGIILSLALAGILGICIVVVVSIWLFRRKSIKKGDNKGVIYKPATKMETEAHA

SMILES | Ki [1] [nM] | Ki [2] [nM] | Ki [3] [nM] | Ki [4] [nM]
CC(=NNc1ccc(S(N)(=O)=O)cc1)c1cc2ccccc2o1 [4a, 4–(2-(1-(Benzofuran-2-yl)ethylidene)hydrazineyl)benzenesulfonamide] | 26.9 | 12.3 | 33.3 | 163
CC(=NNC(=O)c1ccc(S(N)(=O)=O)cc1)c1cc2cc(Br)ccc2o1 [5b, 4–(2-(1–(5-Bromobenzofuran-2-yl)ethylidene)hydrazine-1-carbonyl)benzenesulfonamide] | 32.5 | 44.2 | 27.7 | 63.9
CC(=NNc1ccc(S(N)(=O)=O)cc1)c1cc2cc(Br)ccc2o1 [4b, 4–(2-(1–(5-Bromobenzofuran-2-yl)ethylidene)hydrazineyl)benzenesulfonamide] | 38.8 | 73.5 | 48.4 | 92.7
CC(=NNC(=O)c1ccc(S(N)(=O)=O)cc1)c1cc2ccccc2o1 [5a, 4–(2-(1-(Benzofuran-2-yl)ethylidene)hydrazine-1-carbonyl)benzenesulfonamide] | 10.1 | 33.6 | 60.4 | 37.4

More lines, now with the values ahead:

Ki [1] [nM] | Ki [2] [nM] | Ki [3] [nM] | Ki [4] [nM] | SMILES
49.7 | 644 | 32.8 | 1290 | Cc1ccc(S(=O)(=O)CC(=NNc2ccc(S(N)(=O)=O)cc2)c2cc3ccccc3o2)cc1 [9a, 4–(2-(1-(Benzofuran-2-yl)-2-tosylethylidene)hydrazineyl)benzenesulfonamide]
71.8 | 354 | 76.6 | 4620 | NS(=O)(=O)c1ccc(C(=O)NN=C(CS(=O)(=O)c2ccccc2)c2cc3ccccc3o2)cc1 [10a, 4–(2-(1-(Benzofuran-2-yl)-2-(phenylsulfonyl)ethylidene)hydrazine-1-carbonyl)benzenesulfonamide]
27.5 | 727 | 97.5 | 828 | Cc1ccc(S(=O)(=O)CC(=NNC(=O)c2ccc(S(N)(=O)=O)cc2)c2cc3cc(Br)ccc3o2)cc1 [10d, 4–(2-(1–(5-Bromobenzofuran-2-yl)-2-tosylethylidene)hydrazine-1-carbonyl)benzenesulfonamide]
38.9 | 229 | 51.1 | 3920 | Cc1ccc(S(=O)(=O)CC(=NNC(=O)c2ccc(S(N)(=O)=O)cc2)c2cc3ccccc3o2)cc1 [10b, 4–(2-(1-(Benzofuran-2-yl)-2-tosylethylidene)hydrazine-1-carbonyl)benzenesulfonamide]
66.8 | 439 | 85.4 | 1820 | NS(=O)(=O)c1ccc(C(=O)NN=C(CS(=O)(=O)c2ccccc2)c2cc3cc(Br)ccc3o2)cc1 [10c, 4–(2-(1–(5-Bromobenzofuran-2-yl)-2-(phenylsulfonyl)ethylidene)hydrazine-1-carbonyl)benzenesulfonamide]
16.7 | 571 | 10 | 2500 | Cc1ccc(S(=O)(=O)CC(=NNc2ccc(S(N)(=O)=O)cc2)c2cc3cc(Br)ccc3o2)cc1 [9c, 4–(2-(1–(5-Bromobenzofuran-2-yl)-2-tosylethylidene)hydrazineyl)benzenesulfonamide]
33.4 | 888 | 44.6 | 2160 | NS(=O)(=O)c1ccc(NN=C(CS(=O)(=O)c2ccccc2)c2cc3cc(Br)ccc3o2)cc1 [9b, 4–(2-(1–(5-Bromobenzofuran-2-yl)-2-(phenylsulfonyl)ethylidene)hydrazineyl)benzenesulfonamide]

— PMC6913630, “Novel benzofuran-based sulphonamides as selective carbonic anhydrases IX and XII inhibitors: synthesis and in vitro biological evaluation” (Journal of Enzyme Inhibition and Medicinal Chemistry, 2019)
